Data on 29 compounds can be found in patent publication US20230265432A1, “METHODS AND COMPOSITIONS FOR TREATING ACUTE MYELOID LEUKEMIA” (Sanford Burnham Prebys Medical Discovery Institute, priority 2021, published 2023).

Series [1] has as its system SK-BR-3 breast-derived cell line. Conditions: proliferation; cited from earlier work.
A further series concerns U937 leukemia cell line. Conditions: proliferation; cited from earlier work.
A further series concerns HT29. Conditions: cited from earlier work.
Another series deals with SET7/9 (Homo sapiens, UniProt Q8WTS6). The conditions noted are these: cited from earlier work.
Another series concerns the target PARP1 (Homo sapiens, UniProt P09874). The conditions noted are these: cited from earlier work.
The target in a further series is Aurora A (Homo sapiens, UniProt O14965). The conditions noted are these: cited from earlier work.
For another series, the system named is TNF-a. The conditions noted are these: control 325 pg/ml, cited from earlier work.
For series [2], the target named is HAT PCAF (p300/CREB-binding protein-associated factor) (Homo sapiens, UniProt Q92831). Conditions: cited from earlier work.
A further series has as its target hERG ion-channel (Homo sapiens, UniProt Q12809). Conditions: cited from earlier work.
For a further series, the target named is Aurora B (Homo sapiens, UniProt Q96GD4). Conditions: cited from earlier work.
The next series deals with Aurora C (Homo sapiens, UniProt Q9UQB9). Conditions: cited from earlier work.
In the next series the test system is HL-60 cells. Kind of series: Viability of HL-60 cells expressing pLKO or shRNF5. Conditions: for IC50: Homo sapiens, HL-60, 48 h.
A further series relates to U937 cells. Description: Viability/growth of U937 cells (CellTiter Glo). The class given is cell-based. Conditions: RNF5-KD U937, 24 h.
Series [3] concerns U937 cells expressing an inducible shRNF5 vector. Description: Small molecule epigenetic regulator screen. It counts as cell-based. The conditions noted are these: 0.5 μM or 5 μM, 6 days, +Dox versus −Dox.
In another series the target is BRD4 (Homo sapiens, UniProt O60885). The conditions noted are these: cited from earlier work.
For a further series, the system named is PI3K. The conditions noted are these: cited from earlier work.
The subject of another series is MCF-7 cells. The conditions noted are these: cited from earlier work.
Series [4] has as its target nuclear receptor coactivator 3 (Homo sapiens, UniProt Q9Y6Q9). Conditions: cited from earlier work.
In another series the target is PAD3 (Homo sapiens, UniProt Q9ULW8). Conditions: cited from earlier work.
For another series, the target named is PAD1 (Homo sapiens, UniProt Q9ULC6). Conditions: cited from earlier work.
The test system of the next series is HL-60. The conditions noted are these: cytotoxic; cited from earlier work.
A further series concerns HDAC1A. The conditions noted are these: cited from earlier work.
A further series deals with HDAC1B. The conditions noted are these: cited from earlier work.
The target in series [5] is HIF-1alpha prolyl hydroxylase-2 (PHD2) (Homo sapiens, UniProt Q9GZT9). The conditions noted are these: cited from earlier work.
Another series relates to quinone reductase-1. The conditions noted are these: in mouse hepatoma cells; cited from earlier work.
Series [6] deals with O6-alkylguanine-DNA-alkyltransferase (Homo sapiens, UniProt P16455). Conditions: cited from earlier work.
The next series concerns maize HD1-A. Conditions: cited from earlier work.
The target in series [7] is menin-MLL fusion protein interaction (Homo sapiens, UniProt O00255). Conditions: cited from earlier work.
In another series the target is MLL1 (Homo sapiens, UniProt Q03164). Conditions: cited from earlier work.
In the next series the test system is BRD2, BRD3, and BRD4. Conditions: cited from earlier work.
For a further series, the system named is Colo205. Conditions: proliferation; cited from earlier work.
In the next series the test system is HCT116. Conditions: proliferation; cited from earlier work.
A further series deals with DNMT3B (Homo sapiens, UniProt Q9UBC3). The conditions noted are these: cited from earlier work.
In the next series the target is RET (Homo sapiens, UniProt P07949). The conditions noted are these: cited from earlier work.
The next series addresses Flt3 (Homo sapiens, UniProt P36888). Conditions: cited from earlier work.
In series [8] the test system is MOLM-13 cells. Kind of series: Viability/growth of MOLM-13 cells (CellTiter Glo). The class given is cell-based. Conditions: RNF5-KD versus control.
The test system of series [9] is MOLM-13 cells. Description: Western blot of apoptotic markers. The class given is cell-based. The conditions noted are these: RNF5-KD versus control.

Structures can show the parent of a compound that is named as a salt. Where two headings read alike, the source gives them in different places.

Chain of HIF-1alpha prolyl hydroxylase-2 (PHD2) (Q9GZT9 whole entry, species assumed): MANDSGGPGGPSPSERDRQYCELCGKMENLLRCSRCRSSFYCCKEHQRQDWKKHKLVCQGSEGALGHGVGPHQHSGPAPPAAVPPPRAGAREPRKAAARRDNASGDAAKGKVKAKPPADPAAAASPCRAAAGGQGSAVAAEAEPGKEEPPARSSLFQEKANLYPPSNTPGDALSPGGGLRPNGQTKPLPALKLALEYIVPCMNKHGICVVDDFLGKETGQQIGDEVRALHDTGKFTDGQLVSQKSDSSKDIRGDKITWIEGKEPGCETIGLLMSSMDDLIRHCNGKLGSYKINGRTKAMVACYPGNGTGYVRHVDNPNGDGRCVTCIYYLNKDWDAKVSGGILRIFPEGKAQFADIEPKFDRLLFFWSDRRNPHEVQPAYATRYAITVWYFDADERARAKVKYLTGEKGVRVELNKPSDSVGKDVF
Chain of Aurora B (Q96GD4 whole entry): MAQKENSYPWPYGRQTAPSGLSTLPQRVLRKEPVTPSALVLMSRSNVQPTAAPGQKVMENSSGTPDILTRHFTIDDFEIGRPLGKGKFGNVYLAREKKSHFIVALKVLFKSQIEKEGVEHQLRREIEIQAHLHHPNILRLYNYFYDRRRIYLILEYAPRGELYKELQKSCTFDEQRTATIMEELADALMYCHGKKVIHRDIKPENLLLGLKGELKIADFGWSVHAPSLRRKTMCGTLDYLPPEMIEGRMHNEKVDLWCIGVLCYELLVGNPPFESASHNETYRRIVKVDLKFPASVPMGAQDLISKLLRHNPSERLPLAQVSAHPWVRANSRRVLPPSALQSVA
Chain of PARP1 (P09874 whole entry, species assumed): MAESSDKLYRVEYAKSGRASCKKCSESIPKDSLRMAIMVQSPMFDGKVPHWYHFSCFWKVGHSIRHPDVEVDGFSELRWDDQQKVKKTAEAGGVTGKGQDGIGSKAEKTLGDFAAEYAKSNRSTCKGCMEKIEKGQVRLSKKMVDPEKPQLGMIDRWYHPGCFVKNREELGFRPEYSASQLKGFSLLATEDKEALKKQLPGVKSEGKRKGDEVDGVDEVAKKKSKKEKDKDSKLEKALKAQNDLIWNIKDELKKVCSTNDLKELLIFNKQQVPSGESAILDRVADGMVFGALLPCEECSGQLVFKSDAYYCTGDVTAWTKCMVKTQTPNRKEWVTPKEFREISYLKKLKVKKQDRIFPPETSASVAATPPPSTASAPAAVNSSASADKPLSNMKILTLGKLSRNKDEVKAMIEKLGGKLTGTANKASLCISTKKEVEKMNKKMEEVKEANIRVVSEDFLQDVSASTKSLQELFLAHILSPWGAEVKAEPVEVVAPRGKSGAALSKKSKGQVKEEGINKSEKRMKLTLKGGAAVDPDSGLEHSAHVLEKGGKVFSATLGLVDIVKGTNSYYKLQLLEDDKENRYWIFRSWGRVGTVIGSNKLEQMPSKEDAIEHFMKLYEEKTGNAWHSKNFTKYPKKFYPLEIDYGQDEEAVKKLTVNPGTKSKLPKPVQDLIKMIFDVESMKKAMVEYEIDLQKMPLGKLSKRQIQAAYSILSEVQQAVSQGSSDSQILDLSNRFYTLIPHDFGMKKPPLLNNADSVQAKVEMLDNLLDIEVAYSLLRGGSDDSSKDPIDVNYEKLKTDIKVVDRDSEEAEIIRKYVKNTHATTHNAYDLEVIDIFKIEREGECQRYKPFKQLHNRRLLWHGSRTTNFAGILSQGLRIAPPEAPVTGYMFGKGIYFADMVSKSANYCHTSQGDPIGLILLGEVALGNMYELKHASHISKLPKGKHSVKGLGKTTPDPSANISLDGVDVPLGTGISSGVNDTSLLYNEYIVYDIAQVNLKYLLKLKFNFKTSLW
Chain of SET7/9 (Q8WTS6 whole entry, species assumed): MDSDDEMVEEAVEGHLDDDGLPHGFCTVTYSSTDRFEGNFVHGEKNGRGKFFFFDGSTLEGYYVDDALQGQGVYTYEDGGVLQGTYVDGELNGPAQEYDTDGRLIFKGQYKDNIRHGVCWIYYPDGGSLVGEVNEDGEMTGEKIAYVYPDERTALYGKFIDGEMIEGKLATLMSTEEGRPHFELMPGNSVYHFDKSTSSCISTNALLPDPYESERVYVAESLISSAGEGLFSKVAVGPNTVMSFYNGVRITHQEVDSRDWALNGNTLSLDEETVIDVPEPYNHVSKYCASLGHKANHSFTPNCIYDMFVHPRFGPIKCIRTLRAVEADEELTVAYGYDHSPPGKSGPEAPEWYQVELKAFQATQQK
Chain of Aurora C (Q9UQB9 whole entry): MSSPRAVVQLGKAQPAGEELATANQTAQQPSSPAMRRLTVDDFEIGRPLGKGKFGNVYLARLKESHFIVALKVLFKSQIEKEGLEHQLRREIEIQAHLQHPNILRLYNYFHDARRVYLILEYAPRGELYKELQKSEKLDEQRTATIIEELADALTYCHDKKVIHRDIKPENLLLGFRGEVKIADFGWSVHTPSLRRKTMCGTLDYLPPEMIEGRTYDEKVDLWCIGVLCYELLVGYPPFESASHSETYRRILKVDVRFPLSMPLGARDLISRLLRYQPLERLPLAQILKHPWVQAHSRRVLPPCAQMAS
Chain of HAT PCAF (p300/CREB-binding protein-associated factor) (Q92831 whole entry): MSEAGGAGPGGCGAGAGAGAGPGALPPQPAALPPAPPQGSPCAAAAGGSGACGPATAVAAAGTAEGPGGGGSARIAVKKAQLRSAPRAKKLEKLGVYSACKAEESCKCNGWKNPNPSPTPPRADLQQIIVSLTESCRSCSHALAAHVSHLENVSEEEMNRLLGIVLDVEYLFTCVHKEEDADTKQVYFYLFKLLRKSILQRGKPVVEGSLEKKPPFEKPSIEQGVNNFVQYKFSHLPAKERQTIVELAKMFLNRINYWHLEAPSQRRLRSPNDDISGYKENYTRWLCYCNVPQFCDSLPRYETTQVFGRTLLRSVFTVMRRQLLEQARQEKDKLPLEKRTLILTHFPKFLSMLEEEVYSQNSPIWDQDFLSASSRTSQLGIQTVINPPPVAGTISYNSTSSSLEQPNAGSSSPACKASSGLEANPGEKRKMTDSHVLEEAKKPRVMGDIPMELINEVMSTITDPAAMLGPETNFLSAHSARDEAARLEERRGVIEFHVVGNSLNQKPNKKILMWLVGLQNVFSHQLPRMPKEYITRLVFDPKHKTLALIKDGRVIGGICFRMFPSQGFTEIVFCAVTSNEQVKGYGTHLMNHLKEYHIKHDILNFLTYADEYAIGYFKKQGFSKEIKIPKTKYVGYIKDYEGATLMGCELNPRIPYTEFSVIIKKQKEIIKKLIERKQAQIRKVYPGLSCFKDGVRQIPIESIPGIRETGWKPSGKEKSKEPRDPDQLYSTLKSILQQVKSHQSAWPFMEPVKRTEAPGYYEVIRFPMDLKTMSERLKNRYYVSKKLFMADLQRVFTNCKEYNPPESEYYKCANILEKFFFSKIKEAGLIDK
Chain of menin-MLL fusion protein interaction (O00255 whole entry, the tested form may be a part): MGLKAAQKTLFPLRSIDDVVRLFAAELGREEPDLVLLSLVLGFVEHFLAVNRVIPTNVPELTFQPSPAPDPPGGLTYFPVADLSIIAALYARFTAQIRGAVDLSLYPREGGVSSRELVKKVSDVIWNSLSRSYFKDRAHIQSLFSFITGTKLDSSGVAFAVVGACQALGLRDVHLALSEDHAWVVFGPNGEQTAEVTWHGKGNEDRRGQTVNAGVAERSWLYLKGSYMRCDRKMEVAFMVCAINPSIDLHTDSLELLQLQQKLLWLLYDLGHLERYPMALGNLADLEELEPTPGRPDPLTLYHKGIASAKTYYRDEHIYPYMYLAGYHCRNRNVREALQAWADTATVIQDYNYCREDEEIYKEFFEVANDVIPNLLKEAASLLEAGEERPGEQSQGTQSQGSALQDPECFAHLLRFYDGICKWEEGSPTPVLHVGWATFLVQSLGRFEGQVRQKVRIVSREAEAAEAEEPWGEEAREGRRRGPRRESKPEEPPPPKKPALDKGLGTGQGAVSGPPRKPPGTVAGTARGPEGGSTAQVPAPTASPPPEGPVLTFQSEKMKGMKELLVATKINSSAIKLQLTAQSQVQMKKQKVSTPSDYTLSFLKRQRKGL
Chain of Aurora A (O14965 whole entry): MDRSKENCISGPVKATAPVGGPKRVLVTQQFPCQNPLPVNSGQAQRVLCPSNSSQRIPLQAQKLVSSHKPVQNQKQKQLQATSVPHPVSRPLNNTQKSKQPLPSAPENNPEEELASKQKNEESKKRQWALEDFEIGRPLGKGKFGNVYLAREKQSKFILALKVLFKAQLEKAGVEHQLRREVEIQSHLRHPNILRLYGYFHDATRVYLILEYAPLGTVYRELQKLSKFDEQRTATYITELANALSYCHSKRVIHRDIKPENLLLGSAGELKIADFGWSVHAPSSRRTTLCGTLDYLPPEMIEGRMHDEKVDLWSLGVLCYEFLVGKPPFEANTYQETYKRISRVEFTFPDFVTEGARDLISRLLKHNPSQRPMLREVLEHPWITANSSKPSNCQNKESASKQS
Chain of PAD3 (Q9ULW8 whole entry, species assumed): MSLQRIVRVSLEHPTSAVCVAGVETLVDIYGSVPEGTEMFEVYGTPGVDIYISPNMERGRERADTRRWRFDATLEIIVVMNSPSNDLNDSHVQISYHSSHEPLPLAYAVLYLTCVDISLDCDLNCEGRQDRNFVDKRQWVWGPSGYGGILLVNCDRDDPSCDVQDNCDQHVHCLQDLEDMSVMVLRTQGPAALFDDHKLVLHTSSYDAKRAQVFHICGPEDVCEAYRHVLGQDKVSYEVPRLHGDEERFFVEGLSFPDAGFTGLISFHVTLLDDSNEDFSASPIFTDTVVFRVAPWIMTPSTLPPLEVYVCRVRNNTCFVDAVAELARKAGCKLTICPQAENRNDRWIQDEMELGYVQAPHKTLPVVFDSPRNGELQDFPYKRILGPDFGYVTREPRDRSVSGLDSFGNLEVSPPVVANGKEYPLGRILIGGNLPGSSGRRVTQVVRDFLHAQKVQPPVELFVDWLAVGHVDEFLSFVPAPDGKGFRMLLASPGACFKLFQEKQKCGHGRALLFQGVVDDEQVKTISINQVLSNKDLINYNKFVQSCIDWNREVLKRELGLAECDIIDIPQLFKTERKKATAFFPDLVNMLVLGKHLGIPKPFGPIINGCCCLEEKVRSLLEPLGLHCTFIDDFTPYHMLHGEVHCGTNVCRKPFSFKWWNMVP

Take `O=C(CCCCCCC(=O)Nc1ccc(I)cc1)NO` [4-iodo-SAHA]: the figures for the EC50 (in series [1]; with U937 leukemia cell line; in the series with HT29 (proliferation)) were 1100 nM, 120 nM and 950 nM, respectively.

As to `Cl.O=C([C@@H](Cc1cccc(C(F)(F)F)c1)NS(=O)(=O)c1cc(F)c2c(c1)CCNC2)N1CCCC1` [(R)-PFI-2 (hydrochloride)], on SET7/9, the IC50 was 2 nM and the “fold selectivity over a panel of 18 other methyltransferases” value is on record as “nM) that demonstrates greater than 1,000-fold selectivity”.

`CN(C)Cc1ccc(-c2nc3cccc4c3n2CCNC4=O)cc1` [AG-14361]: at PARP1, the inhibition constant (Ki) is < 5 nM and the “fold more potent than the benzamides” value was “is at least 1000-fold more potent than the benzamides”. As to `CCN1CCN(C(=O)Cc2ccc(Nc3ncc(F)c(Nc4ccc(C(=O)Nc5ccccc5Cl)cc4)n3)cc2)CC1` [Aurora A Inhibitor I], at Aurora A, the half-maximal inhibitory concentration (IC50) is 3.4 nM and the “fold selectivity for Aurora A than Aurora B” value is reported as 1000 fold. With `COCCCn1c(N)c(C(=O)NC2CCCC2)c2nc3ccccc3nc21` [CAY10591], the TNF-a levels with TNF-a (at 20 μM) was 104 pg/mL; with TNF-a (at 60 μM) it was 53 pg/mL. Turning to `CCCCCOc1ccc(/C=C\c2cccc(O)c2C(=O)O)cc1` [CAY10669], in [2], the IC50 is 662 µM and the “fold improvement in inhibitory potency over anacardic acid” value was 2 fold.

`Cc1cc(CN2CCN(c3c(Br)cnc4nc(-c5ccc(N6CCN(C)CC6)cc5)[nH]c34)CC2)no1` [CCT137690]: the “effect on hERG ion-channel” value at hERG ion-channel was “nM. It has little effect on hERG ion-channel”. Also, the 50% inhibitory concentration (IC50) is 25 nM on Aurora B and 19 nM on Aurora C. Regarding `CC(=O)Nc1ccc(C(=O)Nc2ccccc2N)cc1` [CI-994, N-acetyldinaline], the “IC50 for CI-994 in terms of cell viability relative to control cells” value in the series with HL-60 cells (RNF5-KD HL-60, 24 h) is recorded as “lower IC50”; in the series with U937 cells it was “lower IC50”. The “viability of shRNF5-expressing cells relative to control WT RNF5 cells” value in [3] is reported as “decreased viability of shRNF5-expressing cells”.

In the case of `Cc1sc2c(c1C)C(c1ccc(Cl)cc1)=N[C@@H](CC(N)=O)c1nnc(C)n1-2` [CPI-203], at BRD4, the concentration for half-maximal inhibition (IC50) was 37 nM. As to `COc1ccc(-c2nc(N3CCOCC3)c3sc(CN(C)c4ncc(C(=O)NO)cn4)cc3n2)cn1` [CUDC-907], in the series on PI3K, the half-inhibitory concentration (IC50) is 19 nM. On to `COc1cc([C@@H]2c3cc4c(cc3[C@@H](O[C@@H]3O[C@@H]5CO[C@@H](C)O[C@H]5[C@H](O)[C@H]3O)[C@H]3COC(=O)[C@H]23)OCO4)cc(OC)c1O` [Etoposide], for which the concentration for half-maximal inhibition (IC50) in the series with MCF-7 cells (cell-based cytotoxicity assay) was 5.14 nM; in [4] it was 2480 nM.

Turning to `NC(=O)[C@H](CCCN=C(N)CF)NC(=O)c1ccccc1` [F-Amidine (trifluoroacetate salt), F-Amidine], the IC50 in the series on MCF-7 cells was 500 nM; on PAD3, 350 µM; at PAD1, 29.5 µM; with HT29 (cytotoxic), 1000 nM; in the series on HL-60, 500 nM.

Consider `CCN(CC)Cc1ccc2cc(COC(=O)Nc3ccc(C(=O)NO)cc3)ccc2c1` [Givinostat (ITF2357), Givinostat], for which the IC50 with HDAC1A was 16 nM; in the series with HDAC1B, 7.5 nM. Regarding `O=C(O)CNC(=O)c1c(O)c2ccccc2n(Cc2ccccc2)c1=O` [IOX2], in [5], the 50% inhibitory concentration (IC50) is 21 nM and the “fold selectivity over JMJD2A, JMJD2C, JMJD2E, JMJD3, or FIH” value was > 100 fold. As to `O=C(/C=C/c1ccc(O)cc1)c1ccc(O)cc1O` [Isoliquiritigenin], the “concentration required to double activity” value in the series with quinone reductase-1 is 1.8 μM in mouse hepatoma cells. As to `Nc1nc(OCc2cc(Br)cs2)c2[nH]cnc2n1` [Lomeguatrib], the half-maximal inhibitory concentration (IC50) in series [6] was 5 nM. Turning to `Cn1cc(/C=C/C(=O)c2cccc(F)c2)cc1/C=C/C(=O)NO` [MC1568], in the series with maize HD1-A, the IC50 was 100 nM and the “fold more selective for HD1-A than HD1-B” value is reported as 34 fold.

For `CC(C)c1cc2c(N3CCN(C4=NCC(C)(C)S4)CC3)ncnc2s1` [MI-3 (Menin-MLL Inhibitor)], the 50% inhibitory concentration (IC50) in series [7] is 0.648 µM. For the compound `CCc1cc2c(N3CCN(c4nncs4)CC3)ncnc2s1` [MI-nc (hydrochloride)], in [7], the IC50 was 193 µM. As for `CCC(CC)(NC(=O)C(C)C)C(=O)N[C@@H](CCCN=C(N)N)C(=O)NC1(C(=O)NC(c2ccc(F)cc2)c2ccc(F)cc2)CCCC1` [MM-102], the IC50 on MLL1 was 400 nM. As to `Cc1sc2c(c1C)C(c1ccc(Cl)cc1)=N[C@@H](CC(=O)Nc1ccc(O)cc1)c1nnc(C)n1-2` [OTX015], the half-maximal effective concentration (EC50) with BRD2, BRD3, and BRD4 is 10 to 19 nM. As for `Cc1cc(Nc2nn(-c3ccccc3)c(=O)c3ccccc23)n[nH]1` [Phthalazinone pyrazole], the IC50 with MCF-7 cells was 1600 nM; with Colo205, 2900 nM; in the series on HCT116, 7.8 µM. Turning to `O=c1c(O)c(-c2ccc(O)c(O)c2)oc2cc(O)cc(O)c12` [Quercetin], in the series on PI3K, the 50% inhibitory concentration (IC50) is 2400 to 5400 nM. In the case of `Cc1cc(Nc2ccc(NC(=O)c3ccc(Nc4ccnc5ccccc45)cc3)cc2)nc(N)n1` [SGI-1027], the 50% inhibitory concentration (IC50) at DNMT3B is 7.5 µM.

Turning to `CCS(=O)(=O)c1cccc(-c2cc(C(=O)NC3CCN(C)CC3)c(C)c3[nH]c4ncc(C)cc4c23)c1` [TAK-901], on Aurora B, the IC50 was 15 nM.

As for `Cc1cnc(Nc2ccc(N3CCN(C)CC3)cc2)nc1Nc1cccc(S(=O)(=O)NC(C)(C)C)c1` [TG101209], the 50% inhibitory concentration (IC50) is 17 nM on RET and 25 nM on Flt3. For the compound `C/C=C(/C)C(=O)O[C@H]1C(C)=C2[C@H]([C@@H]1OC(=O)CCCCCCC)[C@@](C)(OC(C)=O)C[C@H](OC(=O)CCC)[C@@]1(O)[C@H]2OC(=O)[C@@]1(C)O` [Thapsigargin], the viability result with MOLM-13 cells [8] (thapsigargin 100 nM) is recorded as “decreased viability of MOLM-13 RNF5-KD cells to a greater extent”. In the series on MOLM-13 cells [9] (thapsigargin 1 μM), the apoptotic markers entry is given as “increased apoptotic markers to levels higher than those seen in control cells”.

On to `CC(C)C[C@H](NC(=O)[C@H](Cc1ccccc1)NC(=O)c1cnccn1)B(O)O` [bortezomib], for which the viability result in the series on MOLM-13 cells [8] (BTZ 5 nM) is given as “decreased viability”. For the same compound, in the series with MOLM-13 cells [9] (BTZ 5 nM), the “apoptotic markers (cleaved caspase-3, PARP)” value is “increased levels of apoptotic markers”. Besides, the IC50 is 5.4 nM in the series with HL-60 cells (read-out: BTZ IC50, RNF5-KD cells (shRNF5), 48 h) and 9.6 nM in the series with HL-60 cells (read-out: BTZ IC50, controls (pLKO), 48 h). Turning to SNS-314 Mesylate, the IC50 at Aurora C was 3 nM.
